Assays:
Enterococcus sp. = experiment: in vitro antibacterial evaluation, MIC by broth dilution; type: cell-based; conditions: broth dilution, 18 hours at 35° C.
Procedure, shortened: (§1)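 Test organisms, which included recent clinical isolates resistant to methicillin, penicillin and/or vancomycin, were inoculated at 5×10^5 CFU/mL into Muller-Hinton II […] containing antibiotic at 64-0.06 μg/mL. Minimum inhibitory concentrations were then read as the lowest level inhibiting growth.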

Streptococcus sp. = experiment: as above; type: cell-based; conditions: broth dilution, 18 hours at 35° C.
Procedure, shortened: as §1

Staphylococcus sp. = experiment: as above; type: cell-based; conditions: broth dilution, 18 hours at 35° C.
Procedure, shortened: as §1

Escherichia coli = experiment: as above; type: cell-based; conditions: 18 hours at 35° C.
[1] = clinical pathology (serum clinical chemistry) in mice; type: in vivo; conditions: CD-1 mice, 20 mg/kg intravenously daily for 9 days, sera day 10
Description: 20-day-old CD-1 mice were divided into a vehicle control group (5 mice) and a treatment group (5 mice). Samples of glycopeptide antibiotics were administered at 20 mg/kg intravenously daily for 9 days.

[2] = tested on: Staphylococcus aureus-SMITH (GC 4543); experiment: acute lethal infection in mice; type: in vivo; conditions: acute lethal infection, female CD-1 mice, intraperitoneal challenge, intravenous 30 min. after infection, 7 day survival
Procedure, shortened: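 Intraperitoneal challenge of female CD-1 mice with a bacterial dose lethal to untreated animals within 24-48 hr; single iv treatment 30 min later, 5 mice per dose level. Survival is scored at day 7 and pooled from three experiments to give the median effective dose.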

[3] = anatomic pathology (histopathology of heart and kidney) in mice; type: in vivo; conditions: CD-1 mice, 20 mg/kg intravenously daily for 9 days, necropsy day 10, microscopic histopathology
Description: Samples of tissues from necropsied mice were formalin-fixed, paraffin-embedded, sectioned, stained with hematoxylin and eosin, and examined microscopically. Histopathologic findings were recorded. These findings were subjectively graded on a scale corresponding to slight, mild, moderate, marked and severe as compared to untreated controls.

COc1ccc2cc(COCC3OC(OC4C(CO)OC(Oc5ccc(CC6NC(=O)C(C(C)c7ccccc7)NC(=O)CNC(=O)C(CO)NC(=O)C(CC7CNC(=N)N7C7OC(CO)C(O)C(O)C7O)NC(=O)C(CC7CNC(=N)N7)NC6=O)cc5)C(O)C4O)C(O)C(O)C3O)ccc2c1 (stereo not drawn) [Example 245, Cyclo[3-(2-iminoimidazolidin-4-yl)alanyl-3-(3-hexopyranosyl-2-iminoimidazolidin-4-yl)-alanylserylglycyl-β-methylphenylalanyl-O-[4-O-[6-O-[(6-methoxy-2-naphthyl)methyl]-hexopyranosyl]hexopyranosyl]tyrosyl]]
8 µg/mL: MIC Coagulase Negative Staphylococcus (GC 4551) (Staphylococcus sp.) | MIC Staphylococcus aureus (GC 1131) (Staphylococcus sp.) | MIC Staphylococcus aureus (GC 4544) (Staphylococcus sp.) | MIC Staphylococcus aureus (GC 1131) (Staphylococcus sp.; strain GC 1131) | MIC Staphylococcus aureus (GC 4544) (Staphylococcus sp.; strain GC 4544) | MIC Coagulase Negative Staphylococcus (GC 4551) (Staphylococcus sp.; strain GC 4551)
16 µg/mL: MIC Enterococcus avium (GC 4558) (Enterococcus sp.) | MIC Enterococcus faecalis (GC 2242) (Enterococcus sp.) | MIC Enterococcus faecalis (GC 3059) (Enterococcus sp.) | MIC Enterococcus faecalis (GC 4552) (Enterococcus sp.) | MIC Enterococcus faecalis (GC 4553) (Enterococcus sp.) | MIC Enterococcus faecium (GC 2243) (Enterococcus sp.) | MIC Enterococcus faecium (GC 4556) (Enterococcus sp.) | MIC Enterococcus faecium (GC 2243) (Enterococcus sp.; strain GC 2243) | MIC Enterococcus faecalis (GC 4552) (Enterococcus sp.; strain GC 4552) | MIC Enterococcus faecalis (GC 4553) (Enterococcus sp.; strain GC 4553) | MIC Enterococcus faecium (GC 4556) (Enterococcus sp.; strain GC 4556) | MIC Enterococcus avium (GC 4558) (Enterococcus sp.; strain GC 4558) | MIC Enterococcus faecalis (GC 2242) (Enterococcus sp.; inoculum 5×10^5 CFU/mL, strain GC 2242) | MIC Enterococcus faecalis (GC 3059) (Enterococcus sp.; inoculum 5×10^5 CFU/mL, strain GC 3059)
2 µg/mL: MIC Streptococcus pneumoniae (ATCC 6301) (Streptococcus sp.) | MIC Streptococcus pneumoniae (ATCC 6301) (Streptococcus sp.; inoculum 5×10^5 CFU/mL, strain ATCC 6301) | MIC Coagulase Negative Staphylococcus (GC 4548) (Staphylococcus sp.) | MIC Coagulase Negative Staphylococcus (GC 6257) (Staphylococcus sp.) | MIC Coagulase Negative Staphylococcus (GC 4548) (Staphylococcus sp.; strain GC 4548) | MIC Coagulase Negative Staphylococcus (GC 6257) (Staphylococcus sp.; strain GC 6257)
+++: Anatomical Pathology (Day 10), Kidney [3]
4 µg/mL: MIC Enterococcus faecium (GC 4557) (Enterococcus sp.) | MIC Enterococcus faecium (GC 4557) (Enterococcus sp.; strain GC 4557) | MIC Streptococcus agalactiae (GC 4564) (Streptococcus sp.) | MIC Streptococcus pneumoniae (GC 4565) (Streptococcus sp.) | MIC Streptococcus pyogenes (GC 4563) (Streptococcus sp.) | MIC Streptococcus pyogenes (GC 4563) (Streptococcus sp.; inoculum 5×10^5 CFU/mL, strain GC 4563) | MIC Streptococcus agalactiae (GC 4564) (Streptococcus sp.; inoculum 5×10^5 CFU/mL, strain GC 4564) | MIC Streptococcus pneumoniae (GC 4565) (Streptococcus sp.; inoculum 5×10^5 CFU/mL, strain GC 4565) | MIC Coagulase Negative Staphylococcus (GC 4547) (Staphylococcus sp.) | MIC Staphylococcus aureus (ATCC 29213) (Staphylococcus sp.) | MIC Staphylococcus aureus (GC 3051) (Staphylococcus sp.) | MIC Staphylococcus aureus (GC 3053) (Staphylococcus sp.) | MIC Staphylococcus aureus (GC 4541) (Staphylococcus sp.) | MIC Staphylococcus aureus (GC 4542) (Staphylococcus sp.) | MIC Staphylococcus aureus (GC 4545) (Staphylococcus sp.) | MIC Staphylococcus aureus-SMITH (GC 4543) (Staphylococcus sp.) | MIC Staphylococcus haemolyticus (GC 4546) (Staphylococcus sp.) | MIC Staphylococcus aureus (ATCC 29213) (Staphylococcus sp.; strain ATCC 29213) | MIC Staphylococcus aureus (GC 3051) (Staphylococcus sp.; strain GC 3051) | MIC Staphylococcus aureus (GC 3053) (Staphylococcus sp.; strain GC 3053) | MIC Staphylococcus aureus (GC 4541) (Staphylococcus sp.; strain GC 4541) | MIC Staphylococcus aureus (GC 4542) (Staphylococcus sp.; strain GC 4542) | MIC Staphylococcus aureus-SMITH (GC 4543) (Staphylococcus sp.; strain GC 4543) | MIC Staphylococcus aureus (GC 4545) (Staphylococcus sp.; strain GC 4545) | MIC Staphylococcus haemolyticus (GC 4546) (Staphylococcus sp.; strain GC 4546) | MIC Coagulase Negative Staphylococcus (GC 4547) (Staphylococcus sp.; strain GC 4547) | MIC Escherichia coli (GC 4560) (Escherichia coli)
64 µg/mL: MIC Escherichia coli (ATCC 25922) (Escherichia coli)
32 µg/mL: MIC Enterococcus faecalis (ATCC 29212) (Enterococcus sp.) | MIC Enterococcus faecalis (GC 2691) (Enterococcus sp.) | MIC Enterococcus faecalis (GC 4554) (Enterococcus sp.) | MIC Enterococcus faecalis (GC 6189) (Enterococcus sp.) | MIC Enterococcus faecalis (ATCC 29212) (Enterococcus sp.; strain ATCC 29212) | MIC Enterococcus faecalis (GC 4554) (Enterococcus sp.; strain GC 4554) | MIC Enterococcus faecalis (GC 6189) (Enterococcus sp.; strain GC 6189) | MIC Enterococcus faecalis (GC 2691) (Enterococcus sp.; inoculum 5×10^5 CFU/mL, strain GC 2691) | MIC Escherichia coli (GC 4559) (Escherichia coli)
0: Anatomical Pathology (Day 10), Heart [3]
+138%: Clinical Chemistry (Day 10) % of Control, Creatinine [1]
+160%: Clinical Chemistry (Day 10) % of Control, BUN [1]
1 µg/mL: MIC Streptococcus pneumoniae (GC 1894) (Streptococcus sp.) | MIC Streptococcus pneumoniae (GC 1894) (Streptococcus sp.; inoculum 5×10^5 CFU/mL, strain GC 1894) | MIC Coagulase Negative Staphylococcus (GC 4549) (Staphylococcus sp.) | MIC Coagulase Negative Staphylococcus (GC 4549) (Staphylococcus sp.; strain GC 4549)
4 mg/kg: median effective dose (ED50), Staphylococcus aureus-SMITH (GC 4543) [2]

Reference: patent publication US6914045B2, “Glycopeptide antibiotics” (Wyeth Holdings Corporation, priority 2001, dated 2005)
